The values that follow come from PMC12564302, “Discovery of N-Hydroxypyridinedione-Based Inhibitors of HBV RNase H: Design, Synthesis, and Extended SAR Studies” (International Journal of Molecular Sciences, 2025).

The CC50 is the concentration giving 50% cytotoxicity. One may read the Papp as the rate of passage across a membrane or cell layer, normalised by area and donor concentration. One may read the EC50 as the concentration giving half of the maximal effect. As a reminder, the solubility is the dissolved amount per volume that the medium holds.

A short description of one data set: MTS cytotoxicity assay. To be noted: human, HepDES19 cells, pH 7.4. In kind it is cell-based. Here is the method:
(§1) HepDES19 cells are a HepG2 cell-line derivative that has been stably transfected with an HBV genotype D genome containing a tetracycline repressible promoter. HepDES19 cells were maintained on collagen-coated plates in Dulbecco’s modified Eagle’s medium (DMEM/F12) (Cytiva Life Sciences, Marlborough, MA, USA) supplemented with 10% fetal bovine serum (FBS), streptomycin (100 µg/mL), and penicillin (100 IU/mL), and incubated at 37 °C with 5% CO2 and saturating humidity. Cells were cultured with 1 µg/mL tetracycline to inhibit the expression of the stably integrated HBV genome, and HBV replication was activated upon removal of tetracycline from the culture medium.
Cell viability was assessed using the CellTiter 96^TM Aqueous Non-Radioactive Cell Proliferation assay (MTS) (Promega, Madison, WI, USA) as described previously. HepDES19 cells were seeded in 96 well plates at 1 × 10^4 cells/well for 48 h. Cells were then incubated with serial diluted compound, with a final concentration of 1% DMSO, for 72 h. Following compound incubation, background absorbance values were subtracted, and the data were converted into percent cell viability. The cytotoxic concentration 50% (CC50) values were calculated using GraphPad Prism’s four-parameter log (inhibitor) versus response algorithm, with the bottom value set to zero. Three or more replicate assays were performed on different days.
In general terms: Tetrazolium assays rely on reduction of a dye to a coloured formazan, in cell work by metabolically active cells.

The nature of data set [1]: Parallel artificial membrane permeability assay. The settings on record: PAMPA, pH 7.4, PAMPA. Format: in vitro ADME. The method, then:
The evaluation of apparent passive permeability (Papp) at pH 7.4 was performed using a donor/acceptor cassette (Innovative Laboratory Products, Phoenix, AZ, USA and Sigma Aldrich, Burlington, MA, USA), which simulates the apical and basolateral sides of the small intestine epithelium, as previously described. An artificial membrane made of 1% w/v lecithin/dodecane was applied to the poly (vinylidene fluoride) (PVDF) membrane filter and allowed to dry. Following drying, compounds (200 µM) were diluted in buffer at pH 7.4 and added to the donor side of the cassette. The same pH buffer was added on the acceptor side of the cassette, after which it was assembled and incubated at room temperature with shaking at 250 rpm for 2 h, before reading the absorbance of 100 µL from the acceptor well on a plate reader between 230 and 700 nm. The Papp (cm/s) values for compounds were determined by normalizing to the compound absorbance at equilibrium using the peak absorbance point for each compound, buffer volume, incubation time, and membrane porosity. Two or more replicate assays were conducted on different days.
(In general: In PAMPA a lipid-coated filter parts donor from acceptor wells.)

In data set [2] the test system is HBV replication in HepDES19 cells. The data set is described as follows: qPCR HBV replication inhibition assay. In kind it is cell-based, HBV genotype D. To be noted: 72 h, (+) polarity DNA strand, pH 7.4, read-out: EC50. The method, then:
as §1
HBV replication inhibition in HepDES19 cells was assessed using a strand-preferential quantitative PCR assay as previously described. HepDES19 cells were seeded in 96 well plates at 4 × 10^4 cells/well for 48 h followed by the addition of serial diluted compound with a final concentration of 1% DMSO for 72 h, after which cells were lysed, and qPCR was performed as described in Li et al.. Effective concentration 50% (EC50) values were calculated from data for the (+) polarity DNA strand data using GraphPad Prism version 10’s four-parameter log (inhibitor) versus response algorithm, with the bottom value set to zero. Three or more replicate assays were performed on different days.
In general terms: In qPCR the cycle at which signal appears reflects the starting amount.

A short description of the next data set: Solubility limit assay. The settings on record: DMEM-F12 without phenol red with 10% FBS, pH 7.4, plasma or biological fluid, kinetic from dmso stock. In kind it is physicochemical. Here is the method:
Solubility limits of compounds were tested as previously reported in DMEM-F12 without phenol red (Gibco, Grand Island, NY, USA) but with the media supplemented with 10% FBS (pH 7.4) to mimic cell culture experiments. In a 384-well optically clear plate, compounds were serially diluted in pH 7.4 buffer (upper limit 200 µM, DMSO 1%) then read at 620 nm. Solubility limits were determined by plotting compound concentration (µM) against optical density (OD) and identifying an inflexion point. The inflexion point is defined by a substantial increase in OD brought on by increasing turbidity, and the compound concentration at this point is known as the solubility limit. Each compound had at least two replicate assays performed on different days.

For data set [3], the system named is HBV RNase H carrying the P790L mutation. As to the kind of experiment: Recombinant RNase H biochemical assay (FAM/IowaBlack RNA:DNA heteroduplex). To be noted: qualitative assay. The method, then:
HBV RNase H carrying the P790L mutation that is needed to stabilize the recombinant enzyme was purified from E. coli, and RNase H assays in which an RNA:DNA heteroduplex was incubated with the recombinant enzyme were performed. The RNA strand is FAM-labelled, and the DNA strand carries an IowaBlack quencher. Cleavage of the RNA strand releases the FAM moiety from quenching, causing an increase in fluorescence. Performance limitations with the enzyme limit this assay to just qualitative interpretation.

Another data set deals with HepDES19 cells. To be noted: pH 7.4, cited from earlier work.
Data set [4] relates to HBV replication in HepDES19 cells. The settings on record: pH 7.4, cited from earlier work.
The mark [5] stands for this setting: previously published compound, Table 1.

Molecules are shown by their SMILES. Where two headings read alike, the source gives them in different places. A value given as a limit tells only on which side of the number the result lay.

Turning to `CC(=Nc1ccc(F)c(F)c1)c1c(C)cc(=O)n(O)c1O` [Compound 22, 5-(1-((3,4-difluorophenyl)imino)ethyl)-1,6-dihydroxy-4-methylpyridin-2(1H)-one], the midpoint of cytotoxicity in “MTS cytotoxicity assay”, the CC50 at 72 h, lay at 100000 nM. Also, the Papp at 2 h, 200 µM in data set [1] (pH 7.4, 200 µM, 2 h, read-out: Papp) was 2.99 ×10⁻⁶ cm/s; in data set [1] (pH 7.4, read-out: Papp Interpretation) it was more than 1 ×10⁻⁶ cm/s. The EC50 in data set [2] (HepDES19 cells) was found to be 890 ± 400 nM; in data set [2] (Hepatitis B virus, HepDES19, 72 h, pH 7.4, HepDES19 cells) it was 900 nM. For the same compound, the solubility in “Solubility limit assay” (pH 7.4, DMEM-F12 with 10% FBS, 1% DMSO, upper limit 200 µM, read-out: Solubility Limit) is more than 200 µM; in the data set “Solubility limit assay” (pH 7.4, read-out: Solubility Limit Interpretation) it was more than 100 µM. Also, the “suppression of RNase H activity” value in data set [3] (at 100 µM) is given as ~ 50%. Also, the “suppression of RNase H activity (in words)” value in data set [3] is “dose-dependent suppression of RNase H activity”.

With `C/C(=N\OCc1cccc(Br)c1)c1c(C)cc(=O)n(O)c1O` [Compound 47], the CC50 with HepDES19 cells (previously published compounds) was 78500 ± 32400 nM. Also, in data set [4] (previously published compounds), the 50% effective concentration (EC50) is 520 ± 330 nM.

With `C/C(=N\OCc1ccc(Br)cc1)c1c(C)cc(=O)n(O)c1O` [Compound 48], the CC50 in the data set on HepDES19 cells (previously published compounds) is 76700 ± 30300 nM. The EC50 in data set [4] (previously published compounds) is 1130 ± 190 nM.

Take `C/C(=N\OCc1cccc(Cl)c1)c1c(C)cc(=O)n(O)c1O` [Compound 50]: in the data set with HepDES19 cells (previously published compounds), the CC50 was 56900 ± 31100 nM. Besides, in data set [4] (previously published compounds), the EC50 was 1350 ± 1030 nM.

`C/C(=N\OCc1ccc(Cl)cc1)c1c(C)cc(=O)n(O)c1O` [Compound 51]: the CC50 in the data set with HepDES19 cells (previously published compounds) is 46600 ± 13600 nM. Moreover, the EC50 in data set [4] (previously published compounds) is 360 ± 240 nM.

In the case of `C/C(=N\OCc1ccccc1F)c1c(C)cc(=O)n(O)c1O` [Compound 52], the CC50 in the data set on HepDES19 cells (previously published compound) was 90000 ± 6000 nM. The EC50 in data set [4] (previously published compound) is 320 ± 200 nM.

Regarding `C/C(=N\OCc1cccc(F)c1)c1c(C)cc(=O)n(O)c1O` [Compound 53], the CC50 in the data set with HepDES19 cells (previously published compounds) was 73900 ± 28600 nM. For the same compound, the EC50 in data set [4] (previously published compounds) is 60 ± 10 nM.

With `C/C(=N\c1ccccc1N)c1c(C)cc(=O)n(O)c1O` [Compound 54], the CC50 in the data set with HepDES19 cells (setting [5]) is 15000 ± 7000 nM. Besides, the EC50 in data set [4] (setting [5]) is 690 ± 200 nM.
